Experimental data from patent US10406122B2 (priority 2011, dated 2019).
Where “and” joins values, the source holds several entries; their conditions need not be identical. Equal values may be shown once. Where a name gives a salt, the structure may show the parent alone. Read-outs that look alike come from different tables or passages of the source.

How the values were obtained:
[1] = tested on: patients undergoing abdominal surgery; details: both groups; cited from earlier work
postoperative patients = details: cited from earlier work
[2] = tested on: experienced opioid abusers; details: cited from earlier work
[3] = tested on: patients undergoing TKA or THA; test: Example 2: open label study of Tramadol IV in Total knee Arthroplasty or Total Hip Arthroplasty; details: for PAIN Intensity Difference, Mean score (SD): 100 mg IV; for Time to first demand of rescue medication after the first dose of Tramadol, Mean: hydrochloride

COc1cccc([C@]2(O)CCCC[C@H]2CN(C)C)c1 (racemic) [Tramadol, (±)cis-2-[(dimethylamino)methyl]-1-(3-methoxyphenyl) cyclohexanol hydrochloride]
patients reporting adverse events [1]: 25%
serious adverse effects (postoperative patients; loading doses up to 150 mg IV (Silvasti 2000)): not associated with any serious adverse effects
serious adverse effects (postoperative patients; mean cumulative doses 449 to 868.3 mg over 24, 36 and 48 h): no serious adverse effects were observed
seizure ([2]; 200 mg IV administered over 5 minutes): No seizures were observed
seizure ([2]; 300 mg IV delivered over 2.5 minutes): seizure was observed
seizure ([2]; 700 mg IV administered over 1 minute): seizure was observed
ratings of feel drug effect compared to placebo ([2]; IV over 5 minutes): significantly increased ratings
ratings of liking / ARCI-MBG scale ([2]; tramadol 100 and 200 mg IV, morphine 10 and 20 mg IV, over 5 minutes): neither dose of tramadol increased ratings
major adverse events ([3]; 100 mg IV every 6 hours, 48 hours): nausea and vomiting, followed by pruritus
tolerability ([3]; 100 mg QID, patients with both high and low BMI): well tolerated
Morphine usage, Mean ([3]; 1st dose Tramadol at wound closure, First 24 hours): 10.57 mg
Morphine usage, Mean ([3]; 1st dose Tramadol at wound closure, In 48 hours): 12.98 mg
Morphine usage, Mean ([3]; 1st dose Tramadol at wound closure, Loading dose): 4.05 mg
Morphine usage, Mean ([3]; 1st dose Tramadol at wound closure, Second 24 hours): 3.79 mg
Morphine usage, Mean ([3]; 1st dose Tramadol on demand, First 24 hours): 11.03 mg
Morphine usage, Mean ([3]; 1st dose Tramadol on demand, In 48 hours): 12.92 mg
Morphine usage, Mean ([3]; 1st dose Tramadol on demand, Loading dose): 3.69 mg
Morphine usage, Mean ([3]; 1st dose Tramadol on demand, Second 24 hours): 4 mg
PAIN Intensity Difference, Mean score (SD) ([3]; 1st dose at wound closure, 0.5 hours post first dose): 0 (0.09)
PAIN Intensity Difference, Mean score (SD) ([3]; 1st dose at wound closure, 1 hour post first dose): −0.3 (1.6)
PAIN Intensity Difference, Mean score (SD) ([3]; 1st dose at wound closure, 2 hours post first dose): −1.2 (1.8)
PAIN Intensity Difference, Mean score (SD) ([3]; 1st dose at wound closure, 3 hours post first dose): −2.2 (1.9)
PAIN Intensity Difference, Mean score (SD) ([3]; 1st dose at wound closure, 4 hours post first dose): −2.6 (2.0)
PAIN Intensity Difference, Mean score (SD) ([3]; 1st dose at wound closure, 6 hours post first dose): −3.2 (2.1)
PAIN Intensity Difference, Mean score (SD) ([3]; 1st dose at wound closure, 9 hours post first dose): −2.7 (2.2)
PAIN Intensity Difference, Mean score (SD) ([3]; 1st dose at wound closure, 12 hours post first dose): −2.2 (2.0)
PAIN Intensity Difference, Mean score (SD) ([3]; 1st dose at wound closure, 18 hours post first dose): −2.2 (2.1)
PAIN Intensity Difference, Mean score (SD) ([3]; 1st dose at wound closure, 24 hours post first dose): −1.9 (1.5)
PAIN Intensity Difference, Mean score (SD) ([3]; 1st dose at wound closure, 30 hours post first dose): −1.6 (1.4)
PAIN Intensity Difference, Mean score (SD) ([3]; 1st dose at wound closure, 36 hours post first dose): −1.3 (1.4)
PAIN Intensity Difference, Mean score (SD) ([3]; 1st dose at wound closure, 42 hours post first dose): −1.7 (1.8)
PAIN Intensity Difference, Mean score (SD) ([3]; 1st dose at wound closure, 48 hours post first dose): −1.4 (1.5)
PAIN Intensity Difference, Mean score (SD) ([3]; 1st dose on demand, 0.5 hours post first dose): −0.1 (2.4)
PAIN Intensity Difference, Mean score (SD) ([3]; 1st dose on demand, 1 hour post first dose): −0.5 (2.8)
PAIN Intensity Difference, Mean score (SD) ([3]; 1st dose on demand, 2 hours post first dose): 0.2 (2.1)
PAIN Intensity Difference, Mean score (SD) ([3]; 1st dose on demand, 3 hours post first dose): 0.3 (2.3)
PAIN Intensity Difference, Mean score (SD) ([3]; 1st dose on demand, 4 hours post first dose): 0.3 (2.6)
PAIN Intensity Difference, Mean score (SD) ([3]; 1st dose on demand, 6 hours post first dose): 0.1 (2.8)
PAIN Intensity Difference, Mean score (SD) ([3]; 1st dose on demand, 9 hours post first dose): 0.8 (2.9)
PAIN Intensity Difference, Mean score (SD) ([3]; 1st dose on demand, 12 hours post first dose): 1.4 (2.0)
PAIN Intensity Difference, Mean score (SD) ([3]; 1st dose on demand, 18 hours post first dose): 1.2 (2.2)
PAIN Intensity Difference, Mean score (SD) ([3]; 1st dose on demand, 24 hours post first dose): 1.6 (1.8)
PAIN Intensity Difference, Mean score (SD) ([3]; 1st dose on demand, 30 hours post first dose): 1.9 (2.4)
PAIN Intensity Difference, Mean score (SD) ([3]; 1st dose on demand, 36 hours post first dose): 1.9 (2.1)
PAIN Intensity Difference, Mean score (SD) ([3]; 1st dose on demand, 42 hours post first dose): 2.1 (2.1)
PAIN Intensity Difference, Mean score (SD) ([3]; 1st dose on demand, 48 hours post first dose): 2.4 (2.3)
Time to first demand of rescue medication after the first dose of Tramadol, Mean ([3]; Tramadol at wound Closure group): 2.5 (+/−3) hours and 2.52 hours
Time to first demand of rescue medication after the first dose of Tramadol, Mean ([3]; Tramadol on demand group): 2.11 h
Time to first demand of rescue medication after the first dose of Tramadol, Mean ([3]; Tramadol on demand group, listed as tramadol): 2.1 (+/−5.4) hours
total amount of morphine used ([3]; both groups): approximately 15 mg
rescue morphine used ([3]; first 24 hours, both groups): about 11 mg
rescue morphine used ([3]; the next day, both groups): 4 mg
